Experimental data as given in ChEMBL document CHEMBL1201862, “PubChem BioAssay data set” (2004).
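Tested at 5 concentrations; 48 h exposure; 96-well plates; endpoints linearly interpolated, else capped at highest concentration. The concentration for 50% growth inhibition is given as GI50.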 Calls of active or inactive are those of the source. No stated cut-off is given here; in the data, active = GI50 up to about 1.1 µM and inactive = higher.

Columns and labels:
Assay in all cases: NCI-60 cell line screen, 48 h
K562 = system: K562
RPMI-8226 = system: RPMI-8226
SK-MEL-28 = system: SK-MEL-28
HCT-15 = system: HCT-15
TK-10 = system: TK-10
U-251 = system: U-251
SK-MEL-2 = system: SK-MEL-2
T47D = system: T47D
MCF7 = system: MCF7
M14 = system: M14
NCI-H522 = system: NCI-H522
OVCAR-3 = system: OVCAR-3
786-0 = system: 786-0
SNB-75 = system: SNB-75
SF-268 = system: SF-268
CCRF-CEM = system: CCRF-CEM
PC-3 = system: PC-3
NCI-H226 = system: NCI-H226
SF-295 = system: SF-295
SW-620 = system: SW-620

Compound	GI50 (K562)	GI50 (RPMI-8226)	GI50 (SK-MEL-28)	GI50 (HCT-15) [µM]	GI50 (TK-10)	GI50 (U-251)	GI50 (SK-MEL-2)	GI50 (T47D)	GI50 (MCF7)	GI50 (M14)	GI50 (NCI-H522)	GI50 (OVCAR-3)	GI50 (786-0)	GI50 (SNB-75)	GI50 (SF-268)	GI50 (CCRF-CEM)	GI50 (PC-3)	GI50 (NCI-H226)	GI50 (SF-295)	GI50 (SW-620)
COc1ccc(-[n+]2nc(S(=O)(=O)O)c(/C=C/c3ccc(N(C)C)cc3)cc2C#N)cc1	> 100 µM (inactive)	> 100 µM (inactive)	> 100 µM (inactive)	> 100	> 100 µM (inactive)	> 100 µM (inactive)	> 100 µM (inactive)	> 100 µM (inactive)	> 100 µM (inactive)	> 100 µM (inactive)	> 100 µM (inactive)	> 100 µM (inactive)	> 100 µM (inactive)	> 100 µM (inactive)	> 100 µM (inactive)	> 100 µM (inactive)	> 100 µM (inactive)	> 100 µM (inactive)	> 100 µM (inactive)	> 100 µM (inactive)
CCOC(=O)c1ccc(C(=O)C(C(C)=O)C(=O)OC(C)(C)C)n1C (stereo not drawn)	> 100 µM (inactive)	> 100 µM (inactive)	> 100 µM (inactive)	> 100	> 100 µM (inactive)	> 100 µM (inactive)	> 100 µM (inactive)	> 100 µM (inactive)	> 100 µM (inactive)	> 100 µM (inactive)	> 100 µM (inactive)	> 100 µM (inactive)	> 100 µM (inactive)	78.5 µM (inactive)	> 100 µM (inactive)	71.3 µM (inactive)	> 100 µM (inactive)	> 100 µM (inactive)	> 100 µM (inactive)	> 100 µM (inactive)
O=C(O)c1ccc(C2=Nc3cccc4cccc(c34)N2)cc1	> 100 µM (inactive)	> 100 µM (inactive)	> 100 µM (inactive)	> 100	> 100 µM (inactive)	> 100 µM (inactive)	> 100 µM (inactive)	57.9 µM (inactive)	> 100 µM (inactive)	> 100 µM (inactive)	82.6 µM (inactive)	> 100 µM (inactive)	> 100 µM (inactive)	> 100 µM (inactive)	> 100 µM (inactive)	24.7 µM (inactive)	> 100 µM (inactive)	> 100 µM (inactive)	> 100 µM (inactive)	> 100 µM (inactive)
O=[N+]([O-])c1cc(CCl)ccc1CCl	2.24 µM (inactive)	1.48 µM (inactive)	2.06 µM (inactive)	1.84	2.96 µM (inactive)	1.75 µM (inactive)	2.72 µM (inactive)	0.676 µM (active)	1.63 µM (inactive)	1.74 µM (inactive)	1.73 µM (inactive)	1.87 µM (inactive)	1.67 µM (inactive)	2.13 µM (inactive)	1.99 µM (inactive)	0.504 µM (active)	1.64 µM (inactive)	3.78 µM (inactive)	6.82 µM (inactive)	2.17 µM (inactive)
C/C(=N/O)c1cccc(Nc2nc3ccc(Cl)cc3c3[nH]c4ccccc4c23)c1	2.02 µM (inactive)	1.66 µM (inactive)	2.12 µM (inactive)	1.44	2.32 µM (inactive)	2.44 µM (inactive)	1.93 µM (inactive)	1.58 µM (inactive)	0.935 µM (active)	1.82 µM (inactive)	1.12 µM (active)	0.192 µM (active)	1.36 µM (inactive)	< 0.01 µM (active)	1.53 µM (inactive)	1.34 µM (inactive)	1.79 µM (inactive)	2.69 µM (inactive)	1.41 µM (inactive)	1.06 µM (active)
CC(=O)Nc1ccc(Nc2nc(=O)[nH]c(=O)[nH]2)cc1	–	> 100 µM (inactive)	> 100 µM (inactive)	> 100	> 100 µM (inactive)	> 100 µM (inactive)	> 100 µM (inactive)	> 100 µM (inactive)	> 100 µM (inactive)	> 100 µM (inactive)	> 100 µM (inactive)	> 100 µM (inactive)	> 100 µM (inactive)	> 100 µM (inactive)	> 100 µM (inactive)	> 100 µM (inactive)	> 100 µM (inactive)	> 100 µM (inactive)	> 100 µM (inactive)	> 100 µM (inactive)
COc1c(C)c2c(c(=O)c3c(C)cccc3n2C)c2c1c(=O)c1c(C)cccc1n2C	> 10 µM (inactive)	9.27 µM (inactive)	> 10 µM (inactive)	> 10	> 10 µM (inactive)	> 10 µM (inactive)	> 10 µM (inactive)	> 10 µM (inactive)	> 10 µM (inactive)	> 10 µM (inactive)	> 10 µM (inactive)	> 10 µM (inactive)	> 10 µM (inactive)	> 10 µM (inactive)	> 10 µM (inactive)	> 10 µM (inactive)	> 10 µM (inactive)	> 10 µM (inactive)	> 10 µM (inactive)	–
Cc1cc(S(=O)(=O)NC2=Nc3cccc(F)c3CN2)c(S)cc1Cl	–	24.8 µM (inactive)	95.9 µM (inactive)	69.5	> 100 µM (inactive)	44.5 µM (inactive)	35.6 µM (inactive)	28.1 µM (inactive)	61.7 µM (inactive)	40 µM (inactive)	52.6 µM (inactive)	63 µM (inactive)	47.5 µM (inactive)	> 100 µM (inactive)	76.9 µM (inactive)	57.4 µM (inactive)	56.2 µM (inactive)	> 100 µM (inactive)	30.1 µM (inactive)	53.6 µM (inactive)
Cc1cc(S(=O)(=O)NC2=NNC(C)CN2)c(S)cc1Cl (stereo not drawn)	27 µM (inactive)	20.1 µM (inactive)	41.6 µM (inactive)	32.1	> 100 µM (inactive)	39.2 µM (inactive)	21 µM (inactive)	37.8 µM (inactive)	35.8 µM (inactive)	27.7 µM (inactive)	22.3 µM (inactive)	53.7 µM (inactive)	35 µM (inactive)	93.5 µM (inactive)	15.9 µM (inactive)	36.9 µM (inactive)	63.7 µM (inactive)	45.2 µM (inactive)	46.3 µM (inactive)	32.3 µM (inactive)
O=C(Nc1ccccc1C(=O)O)C(=Cc1ccccc1O)NC(=O)c1ccccc1	> 100 µM (inactive)	> 100 µM (inactive)	> 100 µM (inactive)	> 100	–	> 100 µM (inactive)	> 100 µM (inactive)	49.1 µM (inactive)	9.27 µM (inactive)	> 100 µM (inactive)	> 100 µM (inactive)	> 100 µM (inactive)	> 100 µM (inactive)	> 100 µM (inactive)	> 100 µM (inactive)	> 100 µM (inactive)	> 100 µM (inactive)	61.2 µM (inactive)	> 100 µM (inactive)	> 100 µM (inactive)
COC(=O)C1C(OC(=O)c2ccccc2)CC2CCC1N2C(N)=O (stereo not drawn)	> 100 µM (inactive)	> 100 µM (inactive)	> 100 µM (inactive)	> 100	–	> 100 µM (inactive)	> 100 µM (inactive)	> 100 µM (inactive)	> 100 µM (inactive)	> 100 µM (inactive)	> 100 µM (inactive)	> 100 µM (inactive)	> 100 µM (inactive)	> 100 µM (inactive)	> 100 µM (inactive)	> 100 µM (inactive)	> 100 µM (inactive)	> 100 µM (inactive)	> 100 µM (inactive)	> 100 µM (inactive)
COc1cccc2cc(C(=O)NC34CC5CC(CC(C5)C3)C4)c(=N)oc12	50.9 µM (inactive)	25.6 µM (inactive)	> 71 µM (inactive)	49.8	64 µM (inactive)	55.3 µM (inactive)	> 95.1 µM (inactive)	18.2 µM (inactive)	13.2 µM (inactive)	> 100 µM (inactive)	23.4 µM (inactive)	24.6 µM (inactive)	59.8 µM (inactive)	44.6 µM (inactive)	78.9 µM (inactive)	8.04 µM (inactive)	56.6 µM (inactive)	> 61 µM (inactive)	68.5 µM (inactive)	49.9 µM (inactive)
COC(=O)C1(C(=O)OC)C/C(C)=C(/C)SCCCS1	43.1 µM (inactive)	–	> 100 µM (inactive)	> 100	> 100 µM (inactive)	> 100 µM (inactive)	> 100 µM (inactive)	> 100 µM (inactive)	> 100 µM (inactive)	> 100 µM (inactive)	> 100 µM (inactive)	92.7 µM (inactive)	> 100 µM (inactive)	28.4 µM (inactive)	> 100 µM (inactive)	> 100 µM (inactive)	64.1 µM (inactive)	79.1 µM (inactive)	> 100 µM (inactive)	> 100 µM (inactive)
CCCC/C=C1\CCC(CN2CCOCC2)C1=O (stereo not drawn)	1.19 µM (inactive)	0.15 µM (active)	3.24 µM (inactive)	–	9.31 µM (inactive)	3.53 µM (inactive)	10.1 µM (inactive)	5.19 µM (inactive)	1.53 µM (inactive)	3.32 µM (inactive)	0.809 µM (active)	5.32 µM (inactive)	1.8 µM (inactive)	2.27 µM (inactive)	11.5 µM (inactive)	0.724 µM (active)	13.2 µM (inactive)	8.63 µM (inactive)	16.3 µM (inactive)	2.1 µM (inactive)
COc1cc2c(cc1OC(=O)c1cc3ccccc3[nH]1)N=C[C@@H]1CCCN1C2=O	0.306 µM (active)	0.334 µM (active)	0.531 µM (active)	0.475	0.355 µM (active)	0.292 µM (active)	0.224 µM (active)	0.851 µM (active)	0.397 µM (active)	0.18 µM (active)	0.157 µM (active)	0.296 µM (active)	0.261 µM (active)	1.41 µM (inactive)	0.706 µM (active)	0.255 µM (active)	0.585 µM (active)	0.809 µM (active)	1.03 µM (active)	0.325 µM (active)
